In brackets after ≈: the same amount, converted by molar mass. Several values for one entry are separate records, joined by “and”; a condition that tells them apart may be missing. Equal entries are not always repeated. Where two headings read alike, the source gives them in different places. Numbered stars: 1 amine (or outer) side, 2 acyl side, 3 side chain; on linkers, the order of the positions; unused ones are H or OH. Square brackets hold non-standard residues; d marks the D form. Peptide text beside a SMILES is read from it. X4 = CN1CCN(c2cc(-c3cccc(C[C@@H](C(=O)[*:2])N(C)[*:1])c3)ccn2)CC1; X31 = CN([C@@H](Cc1cccc(-c2cccc(C(F)(F)F)c2)c1)C(=O)[*:2])[*:1]; Hmp(2R,3S) = CC[C@H](C)[C@@H](O)C(=O)O; NMeVal(β-OH) = CN[C@H](C(=O)O)C(C)(C)O; NMeV = CN[C@H](C(=O)O)C(C)C
Columns and labels:
[1] = system: C. albicans MMX 2000 ATCC 10231; experiment: MIC assay (CLSI microdilution); assay type: cell-based; details: Candida albicans, ATCC10231, RPMI plus 0.002% Tween-80; read-out: MIC
Method: (§1) Aureobasidin and test compounds (i.e., AbA derivatives of the present invention) were received from Kalexsyn, Inc. (Kalamazoo, Mich.) as powder and were stored at 4° C. until the day of assay. […] amphotericin was obtained from Sigma Aldrich and stored under like conditions. […] Ethanol (95%) was used as a solvent and diluent for all AbA compounds. Amphotericin B was tested from 0.06-64 μg/mL. Amphotericin B (Sigma Aldrich; St. Louis, Mo.; Cat No. A9528-100MG, Lot No. 120M4087) was dissolved and diluted with dimethylsulfoxide (DMSO; Sigma Aldrich; St. Louis, Mo.; Cat No. 472301 Lot No. SHBD2072V).
(§2) The solvents were added to the test agents and the stock solutions stood for approximately 1 hr at room temperature prior to use to auto sterilize. Stock solutions were prepared at 40× the desired top concentration in the test plate.
(§3) All of the test isolates were originally received from either the American Type Culture Collection (ATCC), clinical labs, or directly from Aureogen Biosciences. Organisms stored by Micromyx were cultured on agar medium appropriate to each organism. Colonies were picked by swab from the isolation plates and put into suspension in appropriate broth containing cryoprotectant. The suspensions were aliquoted into cryogenic vials and maintained at −80° C.
(§4) Prior to testing, Candida isolates were streaked from the frozen vials on Sabouraud dextrose agar. The yeast isolates were incubated for 48 hours at 35° C. before use. The fungal isolates were obtained from enumerated fungal stocks previously prepared at Micromyx and stored in phosphate buffered saline at 4° C.
(§5) Test Media. The medium employed for the MIC assay was RPMI-1640 medium from HyClone Laboratories (Logan, Utah; Lot No. AYB60287A). The medium was prepared according to Clinical and Laboratory Standards Institute (CLSI) guidelines (1, 2), and modified to include 0.002% Tween-80. Candida parapsilosis ATCC 22019 (MMX 2323) and Aspergillus fumigatus ATCC MYA-3626 (MMX 5280) were also tested without Tween-80 to provide data for the quality control of amphotericin B in accordance with CLSI (3) and to assess the effect of Tween-80 on the activity of the test agents.
(§6) Test Procedure. The MIC assay method followed the procedure described by CLSI (1, 2) and employed automated liquid handlers to conduct serial dilutions and liquid transfers. Automated liquid handlers included the Multidrop 384 (Labsystems, Helsinki, Finland), Biomek 2000 and Biomek FX (Beckman Coulter, Fullerton Calif.). The wells in columns 2-12 in standard 96-well microdilution plates (Costar 3795) were filled with 150 μl of the appropriate diluent (95% EtOH for investigational compounds, 100% DMSO for amphotericin B). These assay plates would become the ‘mother plates’ from which the assay ‘daughter plates’ would be prepared. The drugs (300 μL at 40× the desired top concentration in the test plates) were dispensed into the appropriate well in Column 1 of the mother plates. The Biomek 2000 was used to make two-fold serial dilutions through Column 11 in the “mother plate”. The wells of Column 12 contained no drug and served as the organism growth control wells.
(§7) The daughter plates were loaded with 185 μL per well on the Multidrop 384 with RPMI plus 0.002% Tween-80 or RPMI containing no Tween-80 for the testing of the two QC isolates. The daughter plates were prepared on the Biomek FX instrument which transferred 5 μL of drug solution from each well of a mother plate to each corresponding well of each daughter plate in a single step.
(§8) A standardized inoculum of each organism was prepared per CLSI methods (1, 2). For the Candida isolates, colonies were picked from the streak plate and a suspension was prepared in RPMI to equal a 0.5 McFarland standard. This suspension was diluted 1:100 in RPMI resulting in a final concentration of approximately 0.5-2.5×10^3 CFU/mL. […]

[2] = system: C. neoformans MMX 0634 ATCC 90112; experiment: MIC assay (CLSI microdilution); assay type: cell-based; details: Cryptococcus neoformans, ATCC90112, RPMI plus 0.002% Tween-80; read-out: MIC
Method: as §1, §2, §3, §4, §5, §6, §7, §8

[3] = system: C. parapsilosis MMX 2323 ATCC 22019; experiment: MIC assay (CLSI microdilution); assay type: cell-based, Candida parapsilosis
Method: as §1, §2, §3, §4, §5, §6, §7, §8

[4] = system: A. flavus MMX 5948; experiment: MIC/MEC assay (CLSI microdilution); assay type: cell-based
Method: as §1, §2, §3, §4, §5, §6, §7, §8

[5] = system: A. fumigatus MMX 5944; experiment: MIC/MEC assay (CLSI microdilution); assay type: cell-based; details: Aspergillus fumigatus, MMX5944, 48 h; for minimal effective concentration: RPMI plus 0.002% Tween-80; for MIC: RPMI plus 0.002% Tween-80, read-out: MIC
Method: as §1, §2, §3, §4, §5, §6, §7, §8

[6] = system: A. fumigatus MMX 6781 ATCC MYA-4609; experiment: MIC/MEC assay (CLSI microdilution); assay type: cell-based; details: Aspergillus fumigatus; for MIC: 48 h, RPMI plus 0.002% Tween-80, read-out: MIC; for minimal effective concentration: RPMI plus 0.002% Tween-80, 48 hr
Method: as §1, §2, §3, §4, §5, §6, §7, §8

[7] = system: A. fumigatus MMX 6782 ATCC 13073; experiment: MIC/MEC assay (CLSI microdilution); assay type: cell-based; details: Aspergillus fumigatus, ATCC13073, 48 h; for MIC: RPMI plus 0.002% Tween-80, read-out: MIC
Method: as §1, §2, §3, §4, §5, §6, §7, §8

[8] = system: A. niger MMX 0624 ATCC 16888; experiment: MIC/MEC assay (CLSI microdilution); assay type: cell-based; details: Aspergillus niger, ATCC16888, 48 h; for MIC: RPMI plus 0.002% Tween-80, read-out: MIC
Method: as §1, §2, §3, §4, §5, §6, §7, §8

[9] = system: A. fumigatus MMX 5280 ATCC MYA-3626; experiment: MIC/MEC assay (CLSI microdilution); assay type: cell-based, Aspergillus fumigatus
Method: as §1, §2, §3, §4, §5, §6, §7, §8

[10] = system: A. fumigatus from Aureogen; experiment: MIC/MEC assay (CLSI microdilution); assay type: cell-based
Method: as §1, §2, §3, §4, §5, §6, §7, §8

[11] = ATCC22019, RPMI plus 0.002% Tween-80, read-out: MIC
[12] = ATCC22019, Without Tween-80, read-out: MIC
[13] = Aspergillus flavus, MMX5948, 48 h, RPMI plus 0.002% Tween-80, read-out: MIC
[14] = RPMI plus 0.002% Tween-80, read-out: MEC
[15] = Aspergillus fumigatus, 48 h, RPMI plus 0.002% Tween-80, read-out: MEC
[16] = Aspergillus fumigatus, 48 h, RPMI plus 0.002% Tween-80, read-out: MIC
[17] = Aspergillus fumigatus, 48 h, Without Tween-80, read-out: MIC
[18] = RPMI plus 0.002% Tween-80, 48 hr

MIC [2] | MIC [3, 11] | MIC [3, 12] | MIC [4, 13] | MIC [5] | MIC [6] | MIC [7] | MIC [8] | MIC [9, 16] | MIC [9, 17] | SMILES | minimal effective concentration [5] | minimal effective concentration [6] | minimal effective concentration [9, 15] | other results
0.25 µg/mL | 0.5 µg/mL | 2 µg/mL (≈ 1.61 µM) | > 64 µg/mL | > 64 µg/mL | > 64 µg/mL | > 64 µg/mL | 0.5 µg/mL | > 64 µg/mL | > 64 µg/mL | CC[C@H](C)[C@@H]1NC(=O)[C@@H]2CCCN2C(=O)[C@H](Cc2cccc(-c3cccc(C(F)(F)F)c3)c2)N(C)C(=O)[C@H](Cc2ccccc2)NC(=O)[C@H](C(C)C)N(C)C(=O)[C@@H]([C@@H](C)CC)OC(=O)[C@H](C(C)(C)O)N(C)C(=O)[C@H](CC(C)C)NC(=O)[C@H](C(C)C)N(C)C1=O [Compound 4] (cyclo(F[X31]PI[NMeV]L[NMeVal(β-OH)][Hmp(2R,3S)][NMeV])) | 1 µg/mL | > 64 µg/mL | > 64 µg/mL | MIC [1]: 0.12 µg/mL; minimal effective concentration ([4]; Aspergillus flavus, MMX5948, 48 h, RPMI plus 0.002% Tween-80): > 64 µg/mL; minimal effective concentration [7, 14]: 1 µg/mL; minimal effective concentration [8, 14]: 0.5 µg/mL; minimal effective concentration ([9]; Aspergillus fumigatus, 48 h, Without Tween-80, read-out: MEC): > 64 µg/mL
0.06 µg/mL | 0.03 µg/mL | 0.5 µg/mL (≈ 0.392 µM) | 0.25 µg/mL | 0.5 µg/mL | 0.25 µg/mL | 0.5 µg/mL | 0.03 µg/mL | 0.25 µg/mL | 1 µg/mL (≈ 0.783 µM) | CC[C@H](C)[C@@H]1NC(=O)[C@@H]2CCCN2C(=O)[C@H](Cc2cccc(-c3ccnc(N4CCN(C)CC4)c3)c2)N(C)C(=O)[C@H](Cc2ccccc2)NC(=O)[C@H](C(C)C)N(C)C(=O)[C@@H]([C@@H](C)CC)OC(=O)[C@H](C(C)(C)O)N(C)C(=O)[C@H](CC(C)C)NC(=O)[C@H](C(C)C)N(C)C1=O [Compound 15] (cyclo(F[X4]PI[NMeV]L[NMeVal(β-OH)][Hmp(2R,3S)][NMeV])) | 0.06 µg/mL | 0.12 µg/mL | 0.12 µg/mL | MIC ([3]; Without Tween-80): 0.5 µg/mL (≈ 0.392 µM); MIC [4, 18]: 0.25 µg/mL; minimal effective concentration ([10]; Aspergillus fumigatus, 48 h, RPMI plus 0.002% Tween-80): 0.06 µg/mL; MIC [10, 16]: 0.25 µg/mL; MIC [10, 18]: 0.25 µg/mL; MEC ([9]; Without Tween-80, 48 hr): 1/1 μg/mL and 1 μg/mL; MIC ([9]; Without Tween-80, 48 hr): 2 µg/mL (≈ 1.57 µM)

From patent publication US11066447B2, “Aureobasidium derivatives and methods of synthesis” (AureoGen Biosciences, Inc., priority 2016, dated 2021)
